test system: not given; experiment: not given; settings: not given

Row | melting point [°C] | SMILES
1 | 140 to 160 | Cc1c(-c2ccc(C(F)(F)F)nc2)nc(C(=O)O)c(Cl)c1N [Compound 51, 4-amino-5-chloro-3-methyl-6′-(trifluoromethyl)-[2,3′-bipyridine]-6-carboxylic acid]

test system: Key Grass and Sedge Weeds as well as Grass Crops; experiment: Post-Emergent Test II (Table 6); assay type: in vivo; settings: post-emergence, 336 h, CYPSS, 70 g ai/ha, 14 days after application, read-out: Visual Growth Reduction (%) 14 Days After Application CYPSS
Outline: (§1)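 Post-emergence greenhouse spray, 1st-2nd true leaf stage; track sprayer, 187 L/ha; acetone/DMSO stock diluted in aqueous acetone/IPA/DMSO with Atplus 411F and Triton X-155; rates 1× to 1/16×; subirrigated; visual injury 0 (none) to 100% (complete kill) at 14 days.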

Row | SMILES | pest or weed control at 70 g/ha [%]
2 | Cc1c(-c2ccc(C(F)(F)F)nc2)nc(C(=O)O)c(Cl)c1N [Compound 51, 4-amino-5-chloro-3-methyl-6′-(trifluoromethyl)-[2,3′-bipyridine]-6-carboxylic acid] | 95 to 100

same assay, conditions: post-emergence, 336 h, CYPSS, 140 g ai/ha, 14 days after application, read-out: Visual Growth Reduction (%) 14 Days After Application CYPSS

Row | SMILES | pest or weed control at 140 g/ha [%]
3 | Cc1c(-c2ccc(C(F)(F)F)nc2)nc(C(=O)O)c(Cl)c1N [Compound 51, 4-amino-5-chloro-3-methyl-6′-(trifluoromethyl)-[2,3′-bipyridine]-6-carboxylic acid] | 95 to 100

same assay, conditions: post-emergence, 336 h, DIGSA: crabgrass (Digitaria sanguinalis), 70 g ai/ha, 14 days after application, read-out: Visual Growth Reduction (%) 14 Days After Application DIGSA

Row | SMILES | pest or weed control at 70 g/ha [%]
4 | Cc1c(-c2ccc(C(F)(F)F)nc2)nc(C(=O)O)c(Cl)c1N [Compound 51, 4-amino-5-chloro-3-methyl-6′-(trifluoromethyl)-[2,3′-bipyridine]-6-carboxylic acid] | 60 to 74

same assay, conditions: post-emergence, 336 h, DIGSA: crabgrass (Digitaria sanguinalis), 140 g ai/ha, 14 days after application, read-out: Visual Growth Reduction (%) 14 Days After Application DIGSA

Row | SMILES | pest or weed control at 140 g/ha [%]
5 | Cc1c(-c2ccc(C(F)(F)F)nc2)nc(C(=O)O)c(Cl)c1N [Compound 51, 4-amino-5-chloro-3-methyl-6′-(trifluoromethyl)-[2,3′-bipyridine]-6-carboxylic acid] | 60 to 74

same assay, conditions: post-emergence, 336 h, ORYSS (crop), 70 g ai/ha, 14 days after application, read-out: Visual Growth Reduction (%) 14 Days After Application ORYSS

Row | SMILES | pest or weed control at 70 g/ha [%]
6 | Cc1c(-c2ccc(C(F)(F)F)nc2)nc(C(=O)O)c(Cl)c1N [Compound 51, 4-amino-5-chloro-3-methyl-6′-(trifluoromethyl)-[2,3′-bipyridine]-6-carboxylic acid] | 0 to 29

same assay, conditions: post-emergence, 336 h, ORYSS (crop), 140 g ai/ha, 14 days after application, read-out: Visual Growth Reduction (%) 14 Days After Application ORYSS

Row | SMILES | pest or weed control at 140 g/ha [%]
7 | Cc1c(-c2ccc(C(F)(F)F)nc2)nc(C(=O)O)c(Cl)c1N [Compound 51, 4-amino-5-chloro-3-methyl-6′-(trifluoromethyl)-[2,3′-bipyridine]-6-carboxylic acid] | 0 to 29

same assay, conditions: post-emergence, 336 h, SORVU: grain sorghum (Sorghum vulgare), 70 g ai/ha, 14 days after application, read-out: Visual Growth Reduction (%) 14 Days After Application SORVU

Row | SMILES | pest or weed control at 70 g/ha [%]
8 | Cc1c(-c2ccc(C(F)(F)F)nc2)nc(C(=O)O)c(Cl)c1N [Compound 51, 4-amino-5-chloro-3-methyl-6′-(trifluoromethyl)-[2,3′-bipyridine]-6-carboxylic acid] | 75 to 84

same assay, conditions: post-emergence, 336 h, SORVU: grain sorghum (Sorghum vulgare), 140 g ai/ha, 14 days after application, read-out: Visual Growth Reduction (%) 14 Days After Application SORVU

Row | SMILES | pest or weed control at 140 g/ha [%]
9 | Cc1c(-c2ccc(C(F)(F)F)nc2)nc(C(=O)O)c(Cl)c1N [Compound 51, 4-amino-5-chloro-3-methyl-6′-(trifluoromethyl)-[2,3′-bipyridine]-6-carboxylic acid] | 75 to 84

same assay, conditions: post-emergence, 336 h, TRZSS (crop), 70 g ai/ha, 14 days after application, read-out: Visual Growth Reduction (%) 14 Days After Application TRZSS

Row | SMILES | pest or weed control at 70 g/ha [%]
10 | Cc1c(-c2ccc(C(F)(F)F)nc2)nc(C(=O)O)c(Cl)c1N [Compound 51, 4-amino-5-chloro-3-methyl-6′-(trifluoromethyl)-[2,3′-bipyridine]-6-carboxylic acid] | 30 to 44

same assay, conditions: post-emergence, 336 h, TRZSS (crop), 140 g ai/ha, 14 days after application, read-out: Visual Growth Reduction (%) 14 Days After Application TRZSS

Row | SMILES | pest or weed control at 140 g/ha [%]
11 | Cc1c(-c2ccc(C(F)(F)F)nc2)nc(C(=O)O)c(Cl)c1N [Compound 51, 4-amino-5-chloro-3-methyl-6′-(trifluoromethyl)-[2,3′-bipyridine]-6-carboxylic acid] | 45 to 59

same assay, conditions: post-emergence, 336 h, ZEAMX: maize, corn (Zea mays), 70 g ai/ha, 14 days after application, read-out: Visual Growth Reduction (%) 14 Days After Application ZEAMX

Row | SMILES | pest or weed control at 70 g/ha [%]
12 | Cc1c(-c2ccc(C(F)(F)F)nc2)nc(C(=O)O)c(Cl)c1N [Compound 51, 4-amino-5-chloro-3-methyl-6′-(trifluoromethyl)-[2,3′-bipyridine]-6-carboxylic acid] | 60 to 74

same assay, conditions: post-emergence, 336 h, ZEAMX: maize, corn (Zea mays), 140 g ai/ha, 14 days after application, read-out: Visual Growth Reduction (%) 14 Days After Application ZEAMX

Row | SMILES | pest or weed control at 140 g/ha [%]
13 | Cc1c(-c2ccc(C(F)(F)F)nc2)nc(C(=O)O)c(Cl)c1N [Compound 51, 4-amino-5-chloro-3-methyl-6′-(trifluoromethyl)-[2,3′-bipyridine]-6-carboxylic acid] | 60 to 74

test system: Key Broadleaf Weed and Crop Species; experiment: Post-Emergent Test II (Table 5); assay type: in vivo; settings: Abutilon theophrasti, post-emergence, 336 h, ABUTH: velvetleaf (Abutilon theophrasti), application rate 70 (kg ai/ha; footnote: g ai/ha), read-out: Visual Growth Reduction (%) 14 Days After Application ABUTH
Outline: as §1

Row | SMILES | pest or weed control at 70 g/ha [%]
14 | Cc1c(-c2ccc(C(F)(F)F)nc2)nc(C(=O)O)c(Cl)c1N [Compound 51, 4-amino-5-chloro-3-methyl-6′-(trifluoromethyl)-[2,3′-bipyridine]-6-carboxylic acid] | 0 to 29

same assay, conditions: Abutilon theophrasti, post-emergence, 336 h, ABUTH: velvetleaf (Abutilon theophrasti), application rate 140 (kg ai/ha; footnote: g ai/ha), read-out: Visual Growth Reduction (%) 14 Days After Application ABUTH

Row | SMILES | pest or weed control at 140 g/ha [%]
15 | Cc1c(-c2ccc(C(F)(F)F)nc2)nc(C(=O)O)c(Cl)c1N [Compound 51, 4-amino-5-chloro-3-methyl-6′-(trifluoromethyl)-[2,3′-bipyridine]-6-carboxylic acid] | 0 to 29

same assay, conditions: Amaranthus retroflexus, post-emergence, 336 h, AMARE: redroot pigweed (Amaranthus retroflexus), application rate 70 (kg ai/ha; footnote: g ai/ha), read-out: Visual Growth Reduction (%) 14 Days After Application AMARE

Row | SMILES | pest or weed control at 70 g/ha [%]
16 | Cc1c(-c2ccc(C(F)(F)F)nc2)nc(C(=O)O)c(Cl)c1N [Compound 51, 4-amino-5-chloro-3-methyl-6′-(trifluoromethyl)-[2,3′-bipyridine]-6-carboxylic acid] | 0 to 29

same assay, conditions: Amaranthus retroflexus, post-emergence, 336 h, AMARE: redroot pigweed (Amaranthus retroflexus), application rate 140 (kg ai/ha; footnote: g ai/ha), read-out: Visual Growth Reduction (%) 14 Days After Application AMARE

Row | SMILES | pest or weed control at 140 g/ha [%]
17 | Cc1c(-c2ccc(C(F)(F)F)nc2)nc(C(=O)O)c(Cl)c1N [Compound 51, 4-amino-5-chloro-3-methyl-6′-(trifluoromethyl)-[2,3′-bipyridine]-6-carboxylic acid] | 0 to 29

same assay, conditions: Brassica napus, post-emergence, 336 h, BRSSS: oilseed rape, canola (Brassica napus), application rate 70 (kg ai/ha; footnote: g ai/ha), read-out: Visual Growth Reduction (%) 14 Days After Application BRSSS

Row | SMILES | pest or weed control at 70 g/ha [%]
18 | Cc1c(-c2ccc(C(F)(F)F)nc2)nc(C(=O)O)c(Cl)c1N [Compound 51, 4-amino-5-chloro-3-methyl-6′-(trifluoromethyl)-[2,3′-bipyridine]-6-carboxylic acid] | 60 to 74

same assay, conditions: Brassica napus, post-emergence, 336 h, BRSSS: oilseed rape, canola (Brassica napus), application rate 140 (kg ai/ha; footnote: g ai/ha), read-out: Visual Growth Reduction (%) 14 Days After Application BRSSS

Row | SMILES | pest or weed control at 140 g/ha [%]
19 | Cc1c(-c2ccc(C(F)(F)F)nc2)nc(C(=O)O)c(Cl)c1N [Compound 51, 4-amino-5-chloro-3-methyl-6′-(trifluoromethyl)-[2,3′-bipyridine]-6-carboxylic acid] | 85 to 94

same assay, conditions: Chenopodium album, post-emergence, 336 h, CHEAL: lambsquarters (Chenopodium album), application rate 70 (kg ai/ha; footnote: g ai/ha), read-out: Visual Growth Reduction (%) 14 Days After Application CHEAL

Row | SMILES | pest or weed control at 70 g/ha [%]
20 | Cc1c(-c2ccc(C(F)(F)F)nc2)nc(C(=O)O)c(Cl)c1N [Compound 51, 4-amino-5-chloro-3-methyl-6′-(trifluoromethyl)-[2,3′-bipyridine]-6-carboxylic acid] | 0 to 29

same assay, conditions: Chenopodium album, post-emergence, 336 h, CHEAL: lambsquarters (Chenopodium album), application rate 140 (kg ai/ha; footnote: g ai/ha), read-out: Visual Growth Reduction (%) 14 Days After Application CHEAL

Row | SMILES | pest or weed control at 140 g/ha [%]
21 | Cc1c(-c2ccc(C(F)(F)F)nc2)nc(C(=O)O)c(Cl)c1N [Compound 51, 4-amino-5-chloro-3-methyl-6′-(trifluoromethyl)-[2,3′-bipyridine]-6-carboxylic acid] | 85 to 94

same assay, conditions: Euphorbia heterophylla, post-emergence, 336 h, EPHHL: wild poinsettia (Euphorbia heterophylla), application rate 70 (kg ai/ha; footnote: g ai/ha), read-out: Visual Growth Reduction (%) 14 Days After Application EPHHL

Row | SMILES | pest or weed control at 70 g/ha [%]
22 | Cc1c(-c2ccc(C(F)(F)F)nc2)nc(C(=O)O)c(Cl)c1N [Compound 51, 4-amino-5-chloro-3-methyl-6′-(trifluoromethyl)-[2,3′-bipyridine]-6-carboxylic acid] | 0 to 29

same assay, conditions: Euphorbia heterophylla, post-emergence, 336 h, EPHHL: wild poinsettia (Euphorbia heterophylla), application rate 140 (kg ai/ha; footnote: g ai/ha), read-out: Visual Growth Reduction (%) 14 Days After Application EPHHL

Row | SMILES | pest or weed control at 140 g/ha [%]
23 | Cc1c(-c2ccc(C(F)(F)F)nc2)nc(C(=O)O)c(Cl)c1N [Compound 51, 4-amino-5-chloro-3-methyl-6′-(trifluoromethyl)-[2,3′-bipyridine]-6-carboxylic acid] | 0 to 29

same assay, conditions: Helianthus annuus, post-emergence, 336 h, HELAN: sunflower (Helianthus annuus), application rate 70 (kg ai/ha; footnote: g ai/ha), read-out: Visual Growth Reduction (%) 14 Days After Application HELAN

Row | SMILES | pest or weed control at 70 g/ha [%]
24 | Cc1c(-c2ccc(C(F)(F)F)nc2)nc(C(=O)O)c(Cl)c1N [Compound 51, 4-amino-5-chloro-3-methyl-6′-(trifluoromethyl)-[2,3′-bipyridine]-6-carboxylic acid] | 85 to 94

same assay, conditions: Helianthus annuus, post-emergence, 336 h, HELAN: sunflower (Helianthus annuus), application rate 140 (kg ai/ha; footnote: g ai/ha), read-out: Visual Growth Reduction (%) 14 Days After Application HELAN

Row | SMILES | pest or weed control at 140 g/ha [%]
25 | Cc1c(-c2ccc(C(F)(F)F)nc2)nc(C(=O)O)c(Cl)c1N [Compound 51, 4-amino-5-chloro-3-methyl-6′-(trifluoromethyl)-[2,3′-bipyridine]-6-carboxylic acid] | 85 to 94

same assay, conditions: Viola tricolor, post-emergence, 336 h, VIOTR: wild pansy (Viola tricolor), application rate 70 (kg ai/ha; footnote: g ai/ha), read-out: Visual Growth Reduction (%) 14 Days After Application VIOTR

Row | SMILES | pest or weed control at 70 g/ha [%]
26 | Cc1c(-c2ccc(C(F)(F)F)nc2)nc(C(=O)O)c(Cl)c1N [Compound 51, 4-amino-5-chloro-3-methyl-6′-(trifluoromethyl)-[2,3′-bipyridine]-6-carboxylic acid] | 0 to 29

same assay, conditions: Viola tricolor, post-emergence, 336 h, VIOTR: wild pansy (Viola tricolor), application rate 140 (kg ai/ha; footnote: g ai/ha), read-out: Visual Growth Reduction (%) 14 Days After Application VIOTR

Row | SMILES | pest or weed control at 140 g/ha [%]
27 | Cc1c(-c2ccc(C(F)(F)F)nc2)nc(C(=O)O)c(Cl)c1N [Compound 51, 4-amino-5-chloro-3-methyl-6′-(trifluoromethyl)-[2,3′-bipyridine]-6-carboxylic acid] | 0 to 29
